Reference: US8378098B2, “Imidazol[1,2-α]quinoxalines and derivatives for the treatment of cancers” (Universite de Montpellier I, priority 2007, dated 2013)
Entries after “also recorded” stand apart in the source; their conditions may differ. Where two headings read alike, the source gives them in different places.

How the values were obtained:
[1] = test system: A375 melanoma; test: in vitro cytotoxicity (antiproliferative activity) on A375 melanoma line; assay type: cell-based, human; details: for IC50: Homo sapiens, A-375
From the text: Antiproliferative activity was first measured on a cancer cell line of human origin, A375 melanoma.
Imiquimod and fotemustine (Muphoran®) are used as controls in this study.
(§1) Several human carcinoma cell lines were used: • Lines A375, M4Be, RPMI7591 from human melanoma. • Line LS174T from colon carcinoma. • Line A 2780 from ovarian carcinoma. • The Raji line from B lymphoma. • Line MCF7 from breast carcinoma.
IC50 (concentration of the product tested which inhibits 50% of the maximum cell proliferation observed in the control wells) is determined graphically from the curve of the percentage of cell proliferation as a function of concentration of the product tested.

[2] = test system: RPMI7591 (melanoma); test: in vitro cytotoxicity on RPMI7591 melanoma line; assay type: cell-based; details: Homo sapiens; Table 2; unit inferred; read-out: IC50 RPMI7591
From the text: as §1

[3] = test system: LS174T (colon cancer); test: in vitro cytotoxicity on LS174T colon cancer line; assay type: cell-based; details: Homo sapiens, Table 2, unit inferred
From the text: as §1

[4] = test system: Raji (B lymphoma); test: in vitro cytotoxicity on Raji B lymphoma line; assay type: cell-based, human; details: Homo sapiens, Raji; Table 2; unit inferred
From the text: as §1

[5] = determination of the lethal dose 50 (LD50) in the mouse; assay type: in vivo
[6] = test system: M4Be human melanoma; test: anti-proliferative activity in vivo, M4Be human melanoma xenografted in athymic mice
Procedure: FIG. 1: Effects of fotemustine (20 mg/kg once per week for 3 weeks) and EAPB0203 (20 mg/kg twice per week for 3 weeks) on tumour growth in athymic Swiss mice xenografted with M4Be human melanoma cell line.
Δ, control; ▪, EAPB0203; ●, fotemustine. The data are the results of only one experiment carried out on six mice per group. The results are represented as mean±SEM.
In this study, data are presented relating to the activity of EAPB0203 on the volume of a type of human melanoma tumour model (M4Be lines), xenografted in athymic mice. This study required as a preliminary step several tests of grafts of human melanoma cell lines in athymic mice before establishing the adequate animal model. The in vivo study was performed following the in vitro experiments described previously.
The activity and specificity of EAPB0203 in vivo on tumour growth of human melanoma are evaluated by monitoring tumour development in mice carrying M4Be melanoma treated by administration of fotemustine and EAPB0203 at various doses.
For this study, 18 Swiss nude mice (3 groups of 6 mice) were used. M4Be cancer cells in suspension were injected subcutaneously into the right flank of each athymic Swiss nude female 7-week-old mouse weighing 20-22 g at the beginning of the protocol. The mice were then maintained in a sterile atmosphere and received aseptic food and water. The weight of the mouse and the growth of the tumour in three dimensions were recorded twice a week.
A first group of 6 mice (reference) will receive fotemustine by intra-peritoneal route at a dose of 20 mg/kg once per week for 3 weeks, beginning 7 days after inoculation at the time when the tumour will be visible and palpable. A second group of 6 mice will receive EAPB0203 at the same dose of 20 mg/kg via intra-peritoneal route but twice per week (40 mg/kg per week). The third group (control) of 6 mice will receive only the administration carrier. Tumour volume is calculated by the following formula: length X width X height X 0.52, and is expressed as mean±SEM mm^3.
For fotemustine and EAPB0203, the sequence of administrations is a treatment of three weeks, then two weeks without treatment, and then a second treatment of three weeks.

[7] = in vivo; details: rat, iv, 5 mg/kg
Procedure: (§2) Methods of assaying compounds EAPB0203, EAPB0503 and EAPB0603 by high performance liquid chromatography and detection by mass spectrometry (LC/ESI-MS) were developed and validated in human and rat plasmas. Pre-treatment of the samples consists of a liquid solid extraction preceded by precipitation of plasma proteins in acid medium. The chromatographic column used is C8 Zorbax eclipse XDB and the mobile phase (gradient) a mixture of acetonitrile and formate buffer (pH 3) (flow rate, 0.8 ml/min). The […] from 92 to 113%. The extraction coefficients are higher than 72%. The quantification limit is 5 μg/l for all analytes. Stability tests of the compounds in the matrices were also carried out. These methods were used to determine the pharmacokinetic parameters of compounds EAPB0203, EAPB0503 and EAPB0603 in the rat. The lethal doses 50% of compounds EAPB0203 and EAPB0503 are respectively 14.8 and 7.6 mg/kg.

[8] = lethal doses 50% reported in the pharmacokinetic study; assay type: in vivo; details: species and route not stated in the sentence (rat study)
Procedure: as §2

[9] = test system: HTLV-I-positive human T lines (HuT-102 and C8166, and MT2); test: cell growth of HTLV-I-positive human T lines (CellTiter 96, trypan blue exclusion); assay type: cell-based; details: 1 to 10 μM, 24-96 h
Procedure: (§3) FIG. 2: HTLV-I-positive and HTLV-I-negative malignant human cell lines are sensitive to EAPB0203, but activated or inactivated normal T lymphocytes are resistant. Effects of EAPB0203 on the growth of human T lines not infected by HTLV-I (CEM, Jurkatt, Molt-4 and HuT-78), HTLV-I-positive human T lines (HuT-102 and C8166, and MT2), and normal lymphocytes at rest or activated by PHA. The activated normal PBMC were supplemented with 2% PHA. EAPB0203 was added at the concentrations indicated in mole/l for 24-96 h. Cell growth is analyzed with the “CellTiter 96®” nonradioactive cell growth kit. The results are expressed as a percentage of the control (0.1% DMSO) and represent the mean of the results obtained in three independent experiments.
(§4) The in vitro activity of EAPB0203 on adult T-cell leukemia (ATL) transformed by retrovirus HTLV-I (HuT-102, MT2 . . . ) and malignant HTLV-I-negative T-cells (CEM, Jurkatt . . . ) was evaluated. Initially, the effect of EAPB0203 on cell growth of these lines was evaluated by two techniques, the nonradioactive “CellTiter 96®” cell growth kit and the trypan blue exclusion method.

[10] = test system: human T lines not infected by HTLV-I (CEM, Jurkatt, Molt-4 and HuT-78); test: cell growth of human T lines not infected by HTLV-I (CellTiter 96, trypan blue exclusion); assay type: cell-based; details: 1 to 10 μM, 24-96 h
Procedure: as §3, §4

[11] = test system: leukaemic cells derived from two patients with ATL; test: cell proliferation of leukaemic cells derived from patients with ATL; assay type: cell-based, human
[12] = A375, comparison of IC50 values

CNc1nc2ccccc2n2c(CCc3ccccc3)cnc12 [EAPB0203, N-methyl-1-(2-phenylethyl)imidazo[1,2-a]quinoxalin-4-amine]
activity times higher than that of fotemustine [1, 12]: 110 times | activity times higher than that of imiquimod [1, 12]: 50 times | IC50 ([1]; A375 melanoma line, Table 1, IC50 and standard deviation, read-out: IC50): 1.57 µM | IC50 ([1]; Table 2, unit inferred, read-out: IC50 A375): 1.57 ± 0.56 µM | IC50 [2]: 4.23 ± 0.48 µM | IC50 [3]: 4.12 ± 0.67 µM | IC50 [4]: 6.23 ± 0.06 µM | apparent toxicity after 48 h at the highest doses [5]: did not display any apparent toxicity | LD50 at 48 h ([5]; in vivo, doses 30, 300 and 450 mg/kg, 48 h): > 450 mg/kg | tolerance (weight, side effects) ([6]; 20 mg/kg twice per week, intra-peritoneal, mice carrying M4Be melanoma): well tolerated without loss of weight or apparent side effects | tumour growth compared to control mice and fotemustine mice ([6]; EAPB0203 20 mg/kg twice per week i.p., FIG. 1): significant delay in tumour growth | tumour volume of a remaining mouse when last fotemustine mice were euthanatized ([6]; day 76, 20 mg/kg twice per week i.p.): less than 2 cm^3 | Vd [7]: 10.6 L/kg | area under the curve of plasma concentrations [7]: 870 ng·h/mL | clearance [7]: 48.3 mL/min/kg | half-life [7]: 2.6 h | lethal doses 50% [8]: 14.8 mg/kg | growth of ATL cells (HTLV-I-positive) [9]: sensitive; also recorded: progressive, dose-dependent inhibition | growth of malignant T-cells not associated with HTLV-I [10]: sensitive; also recorded: progressive, dose-dependent inhibition | cell proliferation of leukaemic cells from ATL patients [11]: induced inhibition of cell proliferation
